Reference: the NIST ThermoML archive (doi:10.1021/je5000692)
± gives the expanded uncertainty stated by the source.

Assay: relative permittivity at various frequencies (dimensionless)
Conditions: Liquid, Frequency=0.001 MHz, Coaxial cylinder capacitor

CCCCCCCC [octane]
relative permittivity (303.07 K, 5010 kPa): 1.94148 ± 0.0007 | relative permittivity (303.07 K, 10050 kPa): 1.94875 ± 0.0007 | relative permittivity (303.07 K, 20060 kPa): 1.96184 ± 0.00072 | relative permittivity (303.07 K, 25030 kPa): 1.9682 ± 0.00072 | relative permittivity (333.25 K, 5040 kPa): 1.90899 ± 0.00072 | relative permittivity (333.25 K, 6780 kPa): 1.91211 ± 0.00071 | relative permittivity (333.25 K, 10020 kPa): 1.91777 ± 0.0007 | relative permittivity (333.25 K, 20050 kPa): 1.93287 ± 0.0007 | relative permittivity (333.25 K, 25050 kPa): 1.93989 ± 0.0007 | relative permittivity (373.16 K, 5040 kPa): 1.85755 ± 0.00069 | relative permittivity (373.16 K, 10030 kPa): 1.8684 ± 0.00069 | relative permittivity (373.16 K, 20030 kPa): 1.88737 ± 0.00069 | relative permittivity (373.16 K, 25060 kPa): 1.89562 ± 0.00071 | relative permittivity (398.17 K, 5010 kPa): 1.8243 ± 0.00067 | relative permittivity (398.17 K, 10010 kPa): 1.8374 ± 0.00067 | relative permittivity (398.17 K, 20050 kPa): 1.85955 ± 0.00069 | relative permittivity (398.17 K, 25040 kPa): 1.87023 ± 0.00069
